# In patent US20160039742A1, “EXTRACTION OF TRAMADOL FROM NAUCLEA LATIFOLIA SMITH” ([…] FOURIER - GRENOBLE 1, priority 2013, published 2016):
# Marks after values point to notes of the source that are not given here.
# Legend:
# [1] = system: glutamate-induced nociception in mice; test: Glutamate-induced nociception; type: in vivo
# Protocol: (§1) Experiments in mice were performed on C57BL/6 male mice (Janvier, Le-Genest-St-Isle, France) weighting 26-35 g, housed in individual cages with food and water ad libitum and kept in a 12 hours/12 hours light-dark cycle. All animal experimentations were carried out in accordance with the rules of the European Committee Council Directive of Nov. 24, 1986 (86/609/EEC) and all procedures were approved by the local department of the veterinarian services for the use and care of animals (agreement #380612). All efforts were made to minimize animal suffering and reduce the number of animals used in each series of experiments.
# Animals were treated with the purified tramadol isolated from Nauclea Latifolia (8, 16 or 32 mg/kg, p.o.), dipyrone (60 mg/kg, p.o.) or 0.9% NaCl (p.o.) 1 hour before test. A volume of 20 μl of glutamate (30 μmol/paw) was injected intraplantarly in the ventral surface of the right hind paw. Animals were observed individually for 15 min following glutamate injection. The amount of time they spent licking the injected paw was recorded with a chronometer and was considered as indicative of nociception. Data were analyzed by two-way Anova followed by Tukey's (HSD) multi-comparison test.
# [2] = system: formalin-induced pain; test: Formaline-induced nociception (formalin test); type: in vivo, mice; conditions: 32 mg/kg p.o.
# Protocol: as §1
# The formalin test was carried out as described by Hunskaar and Hole (1987) with slight modifications. The negative control was treated with 0.9% NaCl. […] Other groups of mice were treated with methanolic fractions of Nauclea Latifolia (16, 40 or 80 mg/kg, p.o.), or purified tramadol isolated from Nauclea Latifolia (8, 16 and 32 mg/kg, p.o.). Pain was induced by injecting 50 μl of 2.5% formalin (40% formaldehyde in distilled water) in the right hind paw pad. […] The amount of time spent licking and biting the injected paw was indicative of pain and was recorded during the first 0-5 min (first phase), followed by the 15-30 min period (second phase). Data were analyzed by two-way Anova followed by Tukey's (HSD) multi-comparison test.
# [3] = system: hotplate-induced pain in mice; test: Hotplate test; type: in vivo
# Protocol: as §1
# The apparatus consisted of a water bath in which was placed a metallic cylinder (14 cm diameter×10 cm height). The hot plate was maintained at 55±0.5° C. Each mouse (six per group) acted as its own control. One hour before treatment, the reaction time of each mouse (liking of the forepaws or jumping response) was measured twice with a 10 min interval. The average of the two readings was obtained as the initial reaction time.
# (§2) The protection percentage was calculated as the ratio (reaction time following tramadol administration−initial reaction time): initial reaction time.
# [4] = system: acetic acid-induced abdominal constrictions in mice; test: Acetic acid induced abdominal constriction (writhing) test; type: in vivo
# Protocol: as §1
# One hour after oral administration of these substances, each animal was injected i.p. with 0.6% acetic acid in a volume of 10 ml/kg body weight. After acetic acid injection, the number of stretching or writhing responses per animal was recorded during 30 min after a latency period of 5 min. Inhibition was expressed in percentage.
# Data were analyzed by two-way Anova followed by Tukey's (HSD) multi-comparison test.
# [5] = system: tail flick response in mice after immersion in 55° C. water bath; test: Tail-flick test; type: in vivo
# Protocol: as §1
# The tail-flick test was carried out according to the method described by D'Amour and Smith. This involved immersing extreme 3 cm of the mice's tail in water bath containing water at a temperature of 55±0.5° C. […] The reaction time was recorded with a stopwatch. […] The reaction time of mice was taken at intervals of 15, 30 and 60 min after a latency period of 1 hour following the administration of the decoction and drugs.
# as §2
smiles,measurement,setting,value
"COc1cccc([C@]2(O)CCCC[C@H]2CN(C)C)c1 (racemic) [F27 of N. latifolia, (±)-cis-2-dimethylaminomethyl-1-(3-methoxyphenyl)cyclohexanol]",antinociception in glutamate-induced nociception,"[1]; 8, 16 or 32 mg/kg, p.o.",marked and dose-related antinociception
same,"mean ID50 (95% confidence limits), glutamate-induced nociception","[1]; p.o., 1 hour before test",21.17 (6.49-47.23)
same,"blockade of pain emanating from inflammation, second phase (15-30 min) of formalin test",[2],31.74%
same,"neurogenic-induced pain blockade, first phase (0-5 min) of formalin test",[2],64.07%
same,Protection against thermal nociception (%),"[3]; 8 mg/kg p.o., 0.5 hr",−2.2%
same,Protection against thermal nociception (%),"[3]; 8 mg/kg p.o., 1 hr",22.9%
same,Protection against thermal nociception (%),"[3]; 8 mg/kg p.o., 2 hrs",20.2* %
same,Protection against thermal nociception (%),"[3]; 8 mg/kg p.o., 3 hrs",50.6** %
same,Protection against thermal nociception (%),"[3]; 8 mg/kg p.o., 4 hrs",4.6%
same,Protection against thermal nociception (%),"[3]; 8 mg/kg p.o., 5 hrs",−0.2%
same,Protection against thermal nociception (%),"[3]; 8 mg/kg p.o., 6 hrs",−0.5%
same,Protection against thermal nociception (%),"[3]; 16 mg/kg p.o., 0.5 hr",1.9%
same,Protection against thermal nociception (%),"[3]; 16 mg/kg p.o., 1 hr",27.0* %
same,Protection against thermal nociception (%),"[3]; 16 mg/kg p.o., 2 hrs",21.3* %
same,Protection against thermal nociception (%),"[3]; 16 mg/kg p.o., 3 hrs",52.4** %
same,Protection against thermal nociception (%),"[3]; 16 mg/kg p.o., 4 hrs",6.5%
same,Protection against thermal nociception (%),"[3]; 16 mg/kg p.o., 5 hrs",−2.0%
same,Protection against thermal nociception (%),"[3]; 16 mg/kg p.o., 6 hrs",4.6%
same,Protection against thermal nociception (%),"[3]; 32 mg/kg p.o., 0.5 hr",1.9%
same,Protection against thermal nociception (%),"[3]; 32 mg/kg p.o., 1 hr",45.2** %
same,Protection against thermal nociception (%),"[3]; 32 mg/kg p.o., 2 hrs",50.9** %
same,Protection against thermal nociception (%),"[3]; 32 mg/kg p.o., 3 hrs",71.9*** %
same,Protection against thermal nociception (%),"[3]; 32 mg/kg p.o., 4 hrs",25.2* %
same,Protection against thermal nociception (%),"[3]; 32 mg/kg p.o., 5 hrs",21.3* %
same,Protection against thermal nociception (%),"[3]; 32 mg/kg p.o., 6 hrs",27.8* %
same,time at which increase in latency response reached maximal level,"[3]; 32 mg/kg, oral administration",3 h
same,effect of naloxone on antinociceptive effect in hot plate assay,"[3]; mouse, in vivo",Naloxone antagonized antinociceptive effect
same,counter effect of naloxone on acetic acid-induced writhing,[4]; FIG. 4,absence of counter effect of naloxone
same,bioactivity of HPLC fractions in the writhing test,"[4]; HPLC fractions of root bark extract, writhing test",peak of activity
same,"mean ID50 (95% confidence limits), acetic acid-induced abdominal constrictions",[4]; oral administration,14.13 (5.53-41.88) mg/kg
same,Protection agains thermal nociception (%),"[5]; 8 mg/kg p.o., 15 min",7.7%
same,Protection agains thermal nociception (%),"[5]; 8 mg/kg p.o., 30 min",14.4* %
same,Protection agains thermal nociception (%),"[5]; 8 mg/kg p.o., 60 min",21.4* %
same,Protection agains thermal nociception (%),"[5]; 16 mg/kg p.o., 15 min",5.6%
same,Protection agains thermal nociception (%),"[5]; 16 mg/kg p.o., 30 min",34.3** %
same,Protection agains thermal nociception (%),"[5]; 16 mg/kg p.o., 60 min",42.9*** %
same,reduction of painful sensation due to tail immersion in warm water,"[5]; 32 mg/kg oral, after a latency period of 30 min",63.05%
same,Protection agains thermal nociception (%),"[5]; 32 mg/kg p.o., 15 min",18.7%
same,Protection agains thermal nociception (%),"[5]; 32 mg/kg p.o., 30 min",63.0*** %
same,dose dependence of reduction of painful sensation in tail immersion,"[5]; mouse, in vivo",dose-dependent
same,effect of naloxone on analgesic activity in tail-flick test,"[5]; mouse, in vivo",blocked by naloxone
"CC(=O)Oc1ccccc1C(=O)O [Aspirin, reference compound]",Protection against thermal nociception (%),"[3]; 150 mg/kg p.o., 0.5 hr",1.7%
same,Protection against thermal nociception (%),"[3]; 150 mg/kg p.o., 1 hr",35.5* %
same,Protection against thermal nociception (%),"[3]; 150 mg/kg p.o., 2 hrs",2.2* %
same,Protection against thermal nociception (%),"[3]; 150 mg/kg p.o., 3 hrs",39.5* %
same,Protection against thermal nociception (%),"[3]; 150 mg/kg p.o., 4 hrs",8.5%
same,Protection against thermal nociception (%),"[3]; 150 mg/kg p.o., 5 hrs",10.6%
same,Protection against thermal nociception (%),"[3]; 150 mg/kg p.o., 6 hrs",3.5%
same,Acetic acid-induced writhing inhibition (%),[4]; 150 mg/kg p.o.,52.9%
same,Protection agains thermal nociception (%),"[5]; 150 mg/kg p.o., 15 min",6.4%
same,Protection agains thermal nociception (%),"[5]; 150 mg/kg p.o., 30 min",9.5%
same,Protection agains thermal nociception (%),"[5]; 150 mg/kg p.o., 60 min",7.1%
"CN1CC[C@]23c4c5ccc(O)c4O[C@H]2[C@@H](O)C=C[C@H]3[C@H]1C5 [Morphine, reference compound]",Protection against thermal nociception (%),"[3]; 5 mg/kg s.c., 0.5 hr",7.4%
same,Protection against thermal nociception (%),"[3]; 5 mg/kg s.c., 1 hr",44.4** %
same,Protection against thermal nociception (%),"[3]; 5 mg/kg s.c., 2 hrs",46.8** %
same,Protection against thermal nociception (%),"[3]; 5 mg/kg s.c., 3 hrs",40.4** %
same,Protection against thermal nociception (%),"[3]; 5 mg/kg s.c., 4 hrs",43.6** %
same,Protection against thermal nociception (%),"[3]; 5 mg/kg s.c., 5 hrs",24.6* %
same,Protection against thermal nociception (%),"[3]; 5 mg/kg s.c., 6 hrs",17.1%
same,Protection agains thermal nociception (%),"[5]; 5 mg/kg s.c., 15 min",27.3%
same,Protection agains thermal nociception (%),"[5]; 5 mg/kg s.c., 30 min",62.1*** %
same,Protection agains thermal nociception (%),"[5]; 5 mg/kg s.c., 60 min",77.8*** %
"Cc1c(N(C)CS(=O)(=O)[O-])c(=O)n(-c2ccccc2)n1C.[Na+] [dipyrone, reference compound]",inhibition of glutamate-induced nociception,"[1]; dipyrone (60 mg/kg, p.o.)",70.30%
